{"source": "patent US20150284362A1", "about": "“CARBAZOLE-CONTAINING AMIDES, CARBAMATES, AND UREAS AS CRYPTOCHROME MODULATORS” (ReSet Therapeutics, Inc., priority 2014, published 2015)", "key": {"[1]": {"system": "core clock gene mRNAs in liver", "experiment": "24 hour gene expression study, liver mRNA by RT-qPCR, Balb/c mice", "format": "in vivo, mouse", "conditions": "50 mg/kg PO BID, 7 doses", "experimental": "(§1) E.Z.N.A.® HP Total RNA Isolation Kits (R6812-01 and the protocol described in the Manual, Revised 2010) were utilized to prepare and isolate RNA from the liver samples. To prepare the RNA samples, 10-30 mg of sample was removed from RNA-Later and placed in a 1.5 ml microfuge tube. GTC lysis buffer (700 μl) was added to the tissue, which was homogenized with a rotor-stator homogenizer (e.g. Tissue-Tearor, Model #985370 BioSpec Products with 4.5 mm probe, Cat. #985370-04), and then centrifuged at full speed (≧13,000×g) for 5 minutes. The cleared supernatant was transferred by pipetting to a DNA Clearance Column Pre-inserted in a 2 mL Collection Tube. The assembled column was centrifuged at 13,000×g for 1 minute, and the flow-through was saved. An equal volume (700 μl) of 70% ethanol was added to the lysate and mixed. The sample was then applied to a HiBind RNA spin column placed into a 2 ml collection tube, which was centrifuged at 10,000×g for 60 seconds at room temperature. RNA Wash Buffer I (250 μl) was added by pipetting directly onto a new HiBind RNA column inserted in a 2 ml collection tube. The assembled column was centrifuged at 10,000×g for 60 seconds. The RNA column was placed into a new 2 ml collection tube. DNase I stock solution is pipetted (75 μl) directly onto the surface of the HiBind RNA resin in each column (Using DNAse Digestion with RNase Free DNase Set (E1091): for each HiBind RNA column, the DNase I stock solution was prepared as followed: E.Z.N.A.® DNase I Digestion Buffer 73.5 μl, RNase Free DNase I (20 Kunitz/μl) 1.5 μl=Total Volume 75 μl.). The column with bound RNA was incubated at room temperature (25-30° C.) for 15 minutes. RNA Wash Buffer I (500 μl) was added to the column and placed on a bench top for 2 minutes. After centrifuging at 10,000×g for 60 seconds, discarding the flow-through, 500 μl of RNA Wash Buffer II was added and centrifuged at 10,000×g for 60 seconds. Another 500 μl of RNA Wash Buffer II was added and the column assembly was centrifuged at 10,000×g for 60 seconds. The column was centrifuged for 2 minutes at maximum speed to completely dry the HiBind matrix. […]\nRediPlate 96 RiboGreen RNA Quantification Kit (Invitrogen) RediPlate standard curve was prepared by transferring 20 μl reconstituted RNA standard to a RediPlate well reconstituted in 180 μl RediPlate TE buffer. […] After transferring 5 μl to RediPlate well reconstituted in 195 μl TE buffer and incubating 10 min. at RT, Fluorescence Intensity of wells with standards and samples were read in a Tecan M200 with Excitation set at 480 nm and Emission set at 520 nm with the gain set to ˜70%. […] A standard curve was generated in GraphPad Prism and sample readings (unknowns) are interpolated via linear regression analysis, and the RNA sample concentrations were calculated. […]"}, "[2]": {"system": "core clock and gluconeogenic gene mRNAs in liver", "experiment": "24 hour gene expression study, liver mRNA by RT-qPCR, C57Bl/6J DIO mice", "format": "in vivo, mouse", "conditions": "50 mg/kg PO BID, 5 doses", "text": "Male C57Bl/6J DIO mice were purchased at 17 weeks of age (The Jackson Laboratory, Sacramento, Calif.) and acclimated for a 2 week period before being used for the experiment. Overall group size was 15 per treatment, divided into 5 time-points to give a final group size of 3 mice.\nIn total, each mouse received 5 doses of compound over the course of the experiment. Mice were weighed and randomly assigned to each treatment based on weight the evening before the commencement of the study. Beginning on Day 3 at 3:00 PM, a group of animals from the vehicle and Compound 72-treated groups were euthanized using CO2 asphyxiation, 50 mg of liver, epididymal fat, and skeletal muscle, respectively, were excised and placed in tube containing 500 μl of RNALater. This procedure took place for the remainder of the time-point groups at their given harvest times. Plasma samples were also taken for each animal and frozen, to be used for later measurement of compound levels.\nas §1, with “matrix. The column was placed in a clean 1.5 ml microcentrifuge tube and 40-70 μl of molecular biology grade water is added.” for “matrix.”\nRediPlate 96 RiboGreen RNA Quantification Kit (Invitrogen) RediPlate standard curve was prepared by transferring 20 μl reconstituted RNA standard to a RediPlate well reconstituted in 180 μl RediPlate TE buffer. […]"}, "[3]": {"system": "db/db mice", "experiment": "Increasing dosages of Compound 72 over 7 days in db/db mouse model of type II diabetes", "format": "in vivo", "conditions": "10, 50, 100 mg/kg PO QD 7 days", "text": "Significance was accepted when p<0.05."}, "[4]": {"conditions": "at ZT8 and 32 hours after ZT0 vs vehicle"}}, "data": [{"smiles": "O=C1NCCN1CC(O)Cn1c2ccc(F)cc2c2cc(F)ccc21", "note": "(stereo not shown) [Compound 72, 1-(3-(3,6-difluoro-9H-carbazol-9-yl)-2-hydroxypropyl)imidazolidin-2-one]", "values": [{"measurement": "Bmal1 mRNA in liver", "setting": "[1]; [4]", "result": "substantially increased"}, {"measurement": "Per2 mRNA in liver", "setting": "[1]; over 24 hours vs vehicle", "result": "suppressed"}, {"measurement": "Cry1 mRNA in liver", "setting": "[1]; vs vehicle", "result": "suppressed during its peak of expression during the dark period"}, {"measurement": "Cry2 mRNA in liver (daytime peak)", "setting": "[1]; vs vehicle", "result": "strongly attenuated"}, {"measurement": "Bmal1 mRNA in liver", "setting": "[2]; [4]", "result": "substantially increased"}, {"measurement": "Per2 mRNA in liver", "setting": "[2]; over 24 hours vs vehicle", "result": "suppressed"}, {"measurement": "Cry1 mRNA in liver", "setting": "[2]; vs vehicle", "result": "suppressed during its peak of expression during the dark period"}, {"measurement": "Cry2 mRNA in liver (daytime peak)", "setting": "[2]; vs vehicle", "result": "strongly attenuated"}, {"measurement": "circadian pattern of mRNAs for gluconeogenic genes Pck1 and G6Pc in liver", "setting": "[2]; vs vehicle", "result": "substantially altered"}, {"measurement": "OGTT glucose excursion following a glucose load", "setting": "[3]", "result": "dose dependent effect on glucose excursion"}]}]}
